From patent US10800789B2, “Antiviral compounds” (Gilead Pharmasset LLC, priority 2012, dated 2020)
Where two headings read alike, the source gives them in different places.

What was measured:
[1] = test system: NS5A chimeric genotype 1b Con1 replicon with genotype 3a S52 strain NS5A gene; assay: Replicon assay, genotype 3a NS5A chimera; type: cell-based, HCV; conditions: Hepatitis C virus
[2] = test system: stable HCV 1a RLuc replicon cells (dicistronic genotype 1a H77 replicon); assay: Renilla luciferase HCV replicon reporter assay, genotype 1a; type: cell-based; conditions: Hepatitis C virus, 72 h, stable 1a H77 RLuc replicon cells
Summary of the method: (§1)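 Antiviral EC50 was determined in HCV replicon cells (stable RLuc lines for 1a H77, 1b Con1, 2a JFH-1 with NS5A L31; J6 NS5A chimera with M31) treated 72 h with compound. Renilla luciferase was then quantified.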

[3] = test system: Q30R in genotype 1a NS5A (1a Pi-Rluc replicon, Huh-7-derived cured-51 cells); assay: Replicon assay against resistance mutant 1a Q30R; type: cell-based, HCV; conditions: Hepatitis C virus
Method: Antiviral potency (EC50) was determined using a Renilla luciferase (RLuc)-based HCV replicon reporter assay. To perform the assay for genotype 1 and 2a JFH-1, stable HCV 1a RLuc replicon cells (harboring a dicistronic genotype 1a H77 replicon that encodes a RLuc reporter), stable HCV 1b RLuc replicon cells (harboring a dicistronic genotype 1b Con1 replicon that encodes a RLuc reporter), or stable HCV 2a JFH-1 Rluc replicon cells (harboring a dicistronic genotype 2a JFH-1 replicon that encodes a RLuc reporter; with L31 present in NS5A) were dispensed into 384-well plates for EC50 assays. To perform the assay for genotype 2a (with M31 present in NS5A) or 2b, NS5A chimeric genotype 2a JFH-1 replicons that encodes a RLuc-Neo reporter and either genotype 2a J6 strain NS5A gene or genotype 2b MD2b-1 strain NS5A gene (both with M31 present) respectively, were either transiently transfected (t) into Huh-Lunet cells or were established as stably replicating replicon cells (s) is provided. Either cells were dispensed into 384-well plates for EC50 assays. To perform the assay for genotype 3 and 4, NS5A chimeric genotype 1b Con1 replicons that encodes a Pi-RLuc reporter and either genotype 3a S52 strain NS5A gene or genotype 4a ED43 strain NS5A gene respectively, were transiently transfected (t) into Huh-Lunet cells, which were subsequently dispensed into 384-well plates. Compounds were dissolved in DMSO at a concentration of 10 mM and diluted in DMSO either manually or using an automated pipeting instrument. Serially 3-fold diluted compounds were either manually mixed with cell culture media and added to the seeded cells or directly added to the cells using an automated instrument. DMSO was used as a negative (solvent; no inhibition) control, and the protease inhibitor ITMN-191 was included at a concentration>100×EC50 as a positive control. 72 hours later, cells were lysed and Renilla luciferase activity quantified as recommended by the manufacturer (Promega-Madison, Wis.). Non-linear regression was performed to calculate EC50 values.
To determine the antiviral potency (EC50) against resistance mutants, resistance mutations, including M28T, Q30R, Q30H, Q30E, L31M, Y93C, Y93H, and Y93N in genotype 1a NS5A, Y93H and L31V/Y93H in genotype 1b NS5A, and Y93H for in genotype 3a NS5A, were introduced individually into either 1a Pi-Rluc or 1b Pi-Rluc replicons by site directed mutagenesis. Replicon RNA of each resistant mutant was transiently transfected into Huh-7-derived cured-51 cells and antiviral potency was determined on these transfected cells as described above.

[4] = test system: NS5A chimeric genotype 2a JFH-1 replicon with genotype 2b MD2b-1 strain NS5A gene (M31 present); assay: Replicon assay, genotype 2b NS5A chimera; type: cell-based, HCV; conditions: Hepatitis C virus
Summary of the method: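 Cells carrying the stable or transiently transfected (Huh-Lunet) dicistronic RLuc replicons received 3-fold serial compound dilutions from 10 mM DMSO stocks. After 72 h, cells were lysed and Renilla luciferase read. DMSO served as the no-inhibition control and ITMN-191 above 100×EC50 as the positive control; EC50 by non-linear regression.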

[5] = test system: stable HCV 1b RLuc replicon cells (dicistronic genotype 1b Con1 replicon); assay: Renilla luciferase HCV replicon reporter assay, genotype 1b; type: cell-based; conditions: Hepatitis C virus, 72 h, stable 1b Con1 RLuc replicon cells, 72 hours; read-out: 1b
Summary of the method: as §1

[6] = test system: stable HCV 2a JFH-1 Rluc replicon cells (L31 present in NS5A); assay: Renilla luciferase HCV replicon reporter assay, genotype 2a JFH-1; type: cell-based; conditions: Hepatitis C virus
Summary of the method: as §1

[7] = test system: NS5A chimeric genotype 2a JFH-1 replicon with genotype 2a J6 strain NS5A gene (M31 present); assay: Replicon assay, genotype 2a J6 NS5A chimera; type: cell-based, HCV; conditions: Hepatitis C virus
Summary of the method: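 EC50 was fitted by non-linear regression to Renilla luciferase signal after 72 h of exposure to 3-fold serially diluted compound (10 mM DMSO stocks). Controls were DMSO (none) and ITMN-191 above 100×EC50 (full). Chimeric 2a replicons were used either stable or transiently transfected into Huh-Lunet cells.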

[8] = test system: NS5A chimeric genotype 1b Con1 replicon with genotype 4a ED43 strain NS5A gene; assay: Replicon assay, genotype 4a NS5A chimera; type: cell-based, HCV; conditions: Hepatitis C virus
[9] = read-out: 3a (s) (nM), genotype 3a NS5A chimeric replicon, stable replicon cells (s)
[10] = read-out: 3a (s), (s), activity range
[11] = 2BS, read-out: 2b (s), stably replicating replicon cells (s), activity range
[12] = read-out: 2b (s) (nM), genotype 2b MD2b-1 NS5A chimeric replicon (M31), stably replicating replicon cells (s)
[13] = read-out: 2b (t) (nM), genotype 2b MD2b-1 NS5A chimeric replicon (M31), transiently transfected (t)
[14] = read-out: 2b (t), transiently transfected (t) into Huh-Lunet cells, activity range
[15] = read-out: 2a JFH (nM), genotype 2a JFH-1 replicon (L31 in NS5A), stable cells
[16] = read-out: 2a JFH, stable 2a JFH-1 Rluc replicon cells, L31 in NS5A, activity range
[17] = read-out: 2a J6 (t) (nM), genotype 2a J6 NS5A chimeric replicon (M31), transiently transfected (t) into Huh-Lunet cells
[18] = read-out: 2a J6 (t), transiently transfected (t) into Huh-Lunet cells, activity range
[19] = read-out: 4a (s) (nM), genotype 4a NS5A chimeric replicon, stable replicon cells (s)
[20] = read-out: 4a (s), (s), activity range

SMILES | EC50 [1, 9] | EC50 [1, 10] | EC50 [2] | EC50 ([2]; activity range) | EC50 ([3]; read-out: 1a Q30R) | EC50 ([3]; read-out: 1a Q30R (nM)) | EC50 [4, 11] | EC50 [4, 12] | EC50 [4, 13] | EC50 [4, 14] | EC50 [5] | EC50 [6, 15] | EC50 [6, 16] | EC50 ([1]; read-out: 3a (t) (nM), genotype 3a NS5A chimeric replicon, transiently transfected (t)) | EC50 ([1]; read-out: 3a (t), transiently transfected (t) into Huh-Lunet cells, activity range) | EC50 [7, 17] | EC50 [7, 18] | EC50 [8, 19] | EC50 [8, 20]
CC[C@H]1CC[C@@H](c2nc3ccc4cc5c(cc4c3[nH]2)OCc2cc(-c3cnc([C@@H]4CC[C@H](C)N4C(=O)[C@@H](NC(=O)OC)C(C)C)[nH]3)ccc2-5)N1C(=O)[C@@H](NC(=O)OC)C1CCOCC1 [EO, methyl[(1 S)-2-[(2S,5S)-2-ethyl-5-(9-{2-[(2S,5S)-1-{(2S)-2 [(methoxycarbonyl)amino]-3-methylbutanoyl}-5-methylpyrrolidin-2-yl]-1H-imidazol-5-yl}-1,11-dihydroisochromeno[4′,3′:6,7]naphtho[1,2-d]imidazol-2-yl)pyrrolidin-1-yl]-2-oxo-1-(tetrahydro-2H-pyran-4-yl)ethyl]carbamate] | 0.054 nM | < 0.1 nM | 0.024 nM | < 0.1 nM | < 0.1 nM | 0.052 nM | < 0.1 nM | 0.091 nM | 0.038 nM | < 0.1 nM | 0.04 nM | 0.017 nM | < 0.1 nM |  |  |  |  |  | 
COC[C@H]1C[C@@H](c2ncc(-c3ccc4c(c3)COc3cc5c(ccc6nc([C@@H]7C[C@H](COC)CN7C(=O)[C@H](NC(=O)OC)c7ccccc7)[nH]c65)cc3-4)[nH]2)N(C(=O)[C@H](NC(=O)OC)c2ccccc2)C1 [EY, Methyl {(1R)-2-[(2S,4S)-2-(5-{2-[(2S,4S)-1-{(2R)-2-[(methoxycarbonyl)amino]-2-phenylacetyl}-4-(methoxymethyl)pyrrolidin-2-yl]-1,11-dihydroisochromeno[4′,3′:6,7]naphtho[1,2-d]imidazol-9-yl}-1H-imidazol-2-yl)-4-(methoxymethyl)pyrrolidin-1-yl]-2-oxo-1-phenylethyl}carbamate] | 0.087 nM | < 0.1 nM | 0.029 nM | < 0.1 nM | < 0.1 nM | 0.057 nM | < 0.1 nM | 0.035 nM |  |  | 0.049 nM | 0.029 nM | < 0.1 nM | 0.118 nM | 0.1 to 0.999 nM | 0.008 nM | < 0.1 nM | 0.025 nM | < 0.1 nM
COC(=O)N[C@H](C(=O)N1[C@@H](C)CC[C@H]1c1ncc(-c2ccc3c(c2)COc2cc4c(ccc5nc([C@@H]6CC[C@H](C)N6C(=O)[C@H](NC(=O)OC)c6ccccc6)[nH]c54)cc2-3)[nH]1)C(C)C [FB, Methyl {(1R)-2-[(2S,5S)-2-(9-{2-[(2S,5S)-1-{(2S)-2-[(methoxycarbonyl)amino]-3-methylbutanoyl}-5-methylpyrrolidin-2-yl]-1H-imidazol-5-yl}-1,11-dihydroisochromeno[4′,3′:6,7]naphtho[1,2-d]imidazol-2-yl)-5-methylpyrrolidin-1-yl]-2-oxo-1-phenylethyl}carbamate] | 0.026 nM | < 0.1 nM | 0.009 nM | < 0.1 nM | < 0.1 nM | 0.077 nM | < 0.1 nM | 0.081 nM |  |  | 0.014 nM | 0.013 nM | < 0.1 nM |  |  | 0.105 nM | 0.1 to 0.999 nM | 0.01 nM | < 0.1 nM
COC(=O)N[C@H](C(=O)N1[C@@H](C)CC[C@H]1c1ncc(-c2ccc3c(c2)COc2cc4c(ccc5nc([C@@H]6CC[C@H](C)N6C(=O)[C@@H](NC(=O)OC)[C@@H](C)O)[nH]c54)cc2-3)[nH]1)C(C)C [FI, Methyl {(2S,3R)-3-hydroxy-1-[(2S,5S)-2-(9-{2-[(2S,5S)-1-{(2S)-2-[(methoxycarbonyl)amino]-3-methylbutanoyl}-5-methylpyrrolidin-2-yl]-1H-imidazol-5-yl}-1,11-dihydroisochromeno[4′,3′:6,7]naphtho[1,2-d]imidazol-2-yl)-5-methylpyrrolidin-1-yl]-1-oxobutan-2-yl}carbamate] | 0.04 nM | < 0.1 nM | 0.01 nM | < 0.1 nM | 0.1 to 0.999 nM | 0.115 nM | 0.1 to 0.999 nM | 0.152 nM |  |  | 0.022 nM | 0.015 nM | < 0.1 nM |  |  |  |  | 0.012 nM | < 0.1 nM
COC(=O)N[C@H](C(=O)N1[C@@H](C)CC[C@H]1c1ncc(-c2ccc3c(c2)COc2cc4c(ccc5nc([C@@H]6CC[C@H](C)N6C(=O)[C@@H](NC(=O)OC)[C@@H](C)OC)[nH]c54)cc2-3)[nH]1)C1CCOCC1 [FR, Methyl [(1 S)-2-[(2S,5S)-2-(5-{2-[(2S,5S)-1-{(2S,3R)-3-methoxy-2-[(methoxycarbonyl)amino]butanoyl}-5-methylpyrrolidin-2-yl]-1,11-dihydroisochromeno[4′,3′:6,7]naphtho[1,2-d]imidazol-9-yl}-1H-imidazol-2-yl)-5-methylpyrrolidin-1-yl]-2-oxo-1-(tetrahydro-2H-pyran-4-yl)ethyl]carbamate] | 0.031 nM | < 0.1 nM | 0.026 nM | < 0.1 nM | < 0.1 nM | 0.071 nM | < 0.1 nM | 0.054 nM |  |  | 0.05 nM | 0.015 nM | < 0.1 nM |  |  |  |  |  | 
CC[C@H](C)[C@H](NC(=O)OC)C(=O)N1[C@@H](C)CC[C@H]1c1ncc(-c2ccc3c(c2)COc2cc4c(ccc5nc([C@@H]6CC[C@H](C)N6C(=O)[C@@H](NC(=O)OC)C6CCOCC6)[nH]c54)cc2-3)[nH]1 [GG, Methyl [(2S,3S)-1-{(2S,5S)-2-[5-(2-{(2S,5S)-1-[(2S)-2-[(methoxycarbonyl)amino]-2-(tetrahydro-2H-pyran-4-yl)acetyl]-5-methylpyrrolidin-2-yl}-1,11-dihydroisochromeno[4′,3′:6,7]naphtho[1,2-d]imidazol-9-yl)-1H-imidazol-2-yl]-5-methylpyrrolidin-1-yl}-3-methyl-1-oxopentan-2-yl]carbamate] | 0.038 nM | < 0.1 nM | 0.015 nM | < 0.1 nM | < 0.1 nM | 0.032 nM | < 0.1 nM | 0.083 nM | 0.044 nM | < 0.1 nM | 0.022 nM | 0.02 nM | < 0.1 nM |  |  |  |  | 0.013 nM | < 0.1 nM
